Results from patent publication US10975068B2, “6-aminopyridin-3-yl thiazoles as modulators of RORγT” (Janssen Pharmaceutica NV, priority 2016, dated 2021).
Read-outs that look alike come from different tables or passages of the source.

Tests used:
full-length human RORγt = full-length human RORγt (Homo sapiens (Human), UniProt P51449); assay: RORγt (full-length human) reporter assay, Conditions B or C; type: cell-based; conditions: for inhibition at 3 µM: at 3 μM compound concentration; for RORγt (FL) Reporter Assay B or C, % inhibition (value marked *): marked *: footnote not given
In short: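 HEK293T cells transiently co-transfected with GAL4-DBD–full-length human RORγt (nt 142-1635, NM_001001523.1) plus GAL4-firefly and CMV-Renilla luciferase reporters; compounds added 4-6 h post-transfection for 16-20 h in 1.3% FBS, 0.1% DMSO. Firefly signal normalized to DMSO and saturating reference compound, then to Renilla; IC50 from concentration plots.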

[1] = molecular target: human RORγt ligand binding domain (RORγt LBD) (Homo sapiens (Human), UniProt P51449); assay: RORγt ThermoFluor® assay (thermal shift binding)
In short: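 His-tagged human RORγt LBD (0.065 mg/mL) with 60 μM 1,8-ANS in 100 mM Hepes pH 7.0, 10 mM NaCl, 2.5 mM GSH, 0.002% Tween-20 was heated at 1 °C/min.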

[2] = read-out: RORγt (FL) Reporter Assay B or C, % inhibition
[3] = read-out: RORγt (FL) Reporter Assay B or C, IC50
[4] = read-out: ThermoFluor® Assay, Kd
[5] = Conditions B or C, read-out: RORγt (FL) Reporter Assay B or C, IC50
[6] = RORγt (FL) Reporter Assay B or C, IC50 (μM), Conditions B or C

full-length human RORγt, sequence (P51449 other isoform, or with tags, fused parts or gaps): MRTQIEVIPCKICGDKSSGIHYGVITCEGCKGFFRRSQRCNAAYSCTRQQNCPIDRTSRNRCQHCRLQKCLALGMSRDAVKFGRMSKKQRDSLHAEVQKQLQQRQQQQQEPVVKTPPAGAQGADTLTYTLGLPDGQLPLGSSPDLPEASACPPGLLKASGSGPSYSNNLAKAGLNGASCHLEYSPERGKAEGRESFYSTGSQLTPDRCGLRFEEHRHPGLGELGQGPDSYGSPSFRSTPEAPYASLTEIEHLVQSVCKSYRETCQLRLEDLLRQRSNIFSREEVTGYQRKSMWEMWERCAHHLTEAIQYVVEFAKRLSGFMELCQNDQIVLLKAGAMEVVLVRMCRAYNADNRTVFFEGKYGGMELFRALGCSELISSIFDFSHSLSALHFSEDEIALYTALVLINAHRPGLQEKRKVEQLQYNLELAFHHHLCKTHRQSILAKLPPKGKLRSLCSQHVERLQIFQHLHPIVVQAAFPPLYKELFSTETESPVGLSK
human RORγt ligand binding domain (RORγt LBD), sequence (P51449 other isoform, or with tags, fused parts or gaps): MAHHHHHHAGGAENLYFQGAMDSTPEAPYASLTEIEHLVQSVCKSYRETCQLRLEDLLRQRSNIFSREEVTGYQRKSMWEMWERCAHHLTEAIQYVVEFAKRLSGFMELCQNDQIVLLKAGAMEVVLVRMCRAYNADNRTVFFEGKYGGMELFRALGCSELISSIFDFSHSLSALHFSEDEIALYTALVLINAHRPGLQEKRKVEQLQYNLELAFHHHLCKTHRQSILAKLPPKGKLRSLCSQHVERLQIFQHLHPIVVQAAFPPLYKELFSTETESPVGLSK

Compound | Kd [1, 4] [µM] | RORγt (FL) Reporter Assay B or C, % inhibition (value marked *) (full-length human RORγt; Conditions B or C) | IC50 (full-length human RORγt; [5]) [µM] | also measured
C[C@H]1CCCN1C(=O)c1nc(C(=O)N[C@H](C)C(C)(C)O)sc1-c1cnc(N[C@H](C2CC2)C(F)(F)F)cc1C(F)F [Example 332, 5-(6-(((R)-1-Cyclopropyl-2,2,2-trifluoroethyl)amino)-4-(difluoromethyl)pyridin-3-yl)-N—((R)-3-hydroxy-3-methylbutan-2-yl)-4-((S)-2-methylpyrrolidine-1-carbonyl)thiazole-2-carboxamide] | 0.0015 | – | – | inhibition at 3 µM (full-length human RORγt; [2]): 107%; IC50 (full-length human RORγt; [3]): 0.089 µM
CC[C@H](Nc1cc(C(F)F)c(-c2sc(C(=O)N[C@@H](C)C(C)(C)O)nc2C(=O)N2C3CCC2CC3)cn1)C(F)(F)F [Example 248] | 0.0034 | 102* % | 0.016 | –
C[C@H](Nc1cc(C(F)F)c(-c2sc(C(=O)NC3CCS(=O)(=O)CC3)nc2C(=O)N2CC(F)(F)C[C@@H]2C)cn1)C(F)(F)F [Example 421, 4-[(2S)-4,4-Difluoro-2-methyl-pyrrolidine-1-carbonyl]-5-[4-(difluoromethyl)-6-[[(1S)-2,2,2-trifluoro-1-methyl-ethyl]amino]-3-pyridyl]-N-(1,1-dioxothian-4-yl)thiazole-2-carboxamide] | 0.001 | – | – | inhibition at 1 µM (full-length human RORγt; at 1 μM compound concentration, read-out: RORγt (FL) Reporter Assay B or C, % inhibition): 98%; IC50 (full-length human RORγt; [3]): 0.064 µM
CC[C@H](Nc1cc(C(F)F)c(-c2sc(C(=O)NC3CCOCC3)nc2C(=O)N2C3CCC2CC3)cn1)C(F)(F)F [Example 153] | 0.0011 | 98* % | 0.052 | –
CCC(C)(C)Nc1cc(C(F)(F)F)c(-c2sc(C(=O)NCC(C)(C)O)nc2C(=O)N2C3CCC2CC3)cn1 [Example 98, 4-((1s,4s)-7-Azabicyclo[2.2.1]heptane-7-carbonyl)-N-(2-hydroxy-2-methylpropyl)-5-(6-(tert-pentylamino)-4-(trifluoromethyl)pyridin-3-yl)thiazole-2-carboxamide] | 0.00041 | 110* % | – | IC50 (full-length human RORγt; [6]): 0.0096 µM
C[C@H]1CC(F)(F)CN1C(=O)c1nc(C(=O)NC2COCC2O)sc1-c1cnc(NC2(C)CCC2)cc1C(F)(F)F (stereo in doubt) [Example 185, 4-((S)-4,4-Difluoro-2-methylpyrrolidine-1-carbonyl)-N-((3S,4R)-4-hydroxytetrahydrofuran-3-yl)-5-(6-((1-methylcyclobutyl)amino)-4-(trifluoromethyl)pyridine-3-yl)thiazole-2-carboxamide] | 0.00023 | 101* % | 0.015 | –
CC[C@H](Nc1cc(C(F)(F)F)c(-c2sc(C(=O)N[C@H]3COC[C@@H]3O)nc2C(=O)N2C3CCC2CC3)cn1)C(F)(F)F [Example 156] | 0.001 | 102* % | – | IC50 (full-length human RORγt; [6]): 0.044 µM
CC[C@@H](Nc1cc(C(F)F)c(-c2sc(C(=O)NCC(C)(C)O)nc2C(=O)N2CCC[C@@H]2C)cn1)C1CC1 (relative stereo) [Example 167, 5-(6-(((R*)-1-Cyclopropyl)amino)-4-(difluoromethyl)pyridine-3-yl)-N-(2-hydroxy-2-methylpropyl)-4-((S)-2-methylpyrrolidine-1-carbonyl)thiazole-2-carboxamide] | 0.0037 | 100* % | 0.12 | –
C[C@H](Nc1cc(C(F)(F)F)c(-c2sc(C(=O)N[C@@H]3COC[C@@H]3O)nc2C(=O)N2C3CCC2CC3)cn1)C(F)(F)F (single isomer, unassigned) [Example 228, 4-((1s,4s)-7-Azabicyclo[2.2.1]heptane-7-carbonyl)-N-((3R*,4R*)-4-hydroxytetrahydrofuran-3-yl)-5-(4-(trifluoromethyl)-6-(((S)-1,1,1-trifluoropropan-2-yl)amino)pyridin-3-yl)thiazole-2-carboxamide] | – | – | – | RORγt (FL) Reporter Assay B or C, % inhibition (value marked ***) (full-length human RORγt; Conditions B or C, marked ***: footnote not given): 91*** %; IC50 (full-length human RORγt; [6]): 0.095 µM; Kd ([1]; ThermoFluor® Assay, Kd (μM)): 0.0023 µM
C[C@H](NC(=O)c1nc(C(=O)N2C3CCC2CC3)c(-c2cnc(N[C@@H](C3CC3)C(F)(F)F)cc2C(F)F)s1)C(C)(C)O [Example 317, 4-((1s,4s)-7-Azabicyclo[2.2.1]heptane-7-carbonyl)-5-(6-(((S)-1-cyclopropyl-2,2,2-trifluoroethyl)amino)-4-(difluoromethyl)pyridin-3-yl)-N—((S)-3-hydroxy-3-methylbutan-2-yl)thiazole-2-carboxamide] | 0.0024 | – | – | IC50 (full-length human RORγt; RORγt (FL) Reporter Assay B or C, IC50): 0.014 µM; inhibition at 3 µM (full-length human RORγt; [2]): 106%
CC[C@H](Nc1cc(C(F)F)c(-c2sc(C(=O)N[C@H]3C[C@H](O)C3)nc2C(=O)N2CCC[C@@H]2C)cn1)C(F)(F)F [Example 233, 5-[4-(Difluoromethyl)-6-[[(1S)-1-(trifluoromethyl)propyl]amino]-3-pyridyl]-N-((1r,3S)-3-hydroxycyclobutyl)-4-[(2S)-2-methylpyrrolidine-1-carbonyl]thiazole-2-carboxamide] | 0.01 | 124* % | 0.022 | –

Continued by falling Kd [1, 4], values first:

Kd [1, 4] [µM] | RORγt (FL) Reporter Assay B or C, % inhibition (value marked *) (full-length human RORγt; Conditions B or C) | IC50 (full-length human RORγt; [5]) [µM] | Compound | also measured
0.0031 | 98* % | 0.04 | CC[C@H](Nc1cc(C(F)F)c(-c2sc(C(=O)N[C@H]3COC[C@H]3O)nc2C(=O)N2CCC[C@@H]2C)cn1)C(F)(F)F (single isomer, unassigned) [Example 165, 5-(4-(Difluoromethyl)-6-(((S)-1,1,1-trifluorobutan-2-yl)amino)pyridin-3-yl)-N-((3S*,4S*)-4-hydroxytetrahydrofuran-3-yl)-4-((S)-2-methylpyrrolidine-1-carbonyl)thiazole-2-carboxamide] | –
0.0024 | 99* % | 0.015 | CC[C@@H](Nc1cc(C(F)F)c(-c2sc(C(=O)N[C@@H](C)C(C)(C)O)nc2C(=O)N2CCC[C@@H]2C)cn1)C(F)(F)F [Example 230] | –
0.0019 | 101* % | 0.024 | CC[C@H](Nc1cc(C(F)(F)F)c(-c2sc(C(=O)N[C@@H]3COC[C@H]3O)nc2C(=O)N2CCC[C@@H]2C)cn1)C(F)(F)F [Example 170, N-((3R,4S)-4-Hydroxytetrahydrofuran-3-yl)-4-((2S)-2-methylpyrrolidine-1-carbonyl)-5-(4-(trifluoromethyl)-6-(((1S)-1-(trifluoromethyl)propyl)amino)-3-pyridyl)thiazole-2-carboxamide] | –
0.0016 | – | – | C[C@H]1CCCN1C(=O)c1nc(C(=O)NC[C@H](O)C(F)(F)F)sc1-c1cnc(NC(C)(C)C)cc1C(F)(F)F (relative stereo) [Example 353, 5-(6-(tert-Butylamino)-4-(trifluoromethyl)pyridin-3-yl)-4-((S)-2-methylpyrrolidine-1-carbonyl)-N—((S*)-3,3,3-trifluoro-2-hydroxypropyl)thiazole-2-carboxamide] | inhibition at 3 µM (full-length human RORγt; [2]): 95%; IC50 (full-length human RORγt; [3]): 0.02 µM
0.0014 | 92* % | 0.058 | CC[C@H](Nc1cc(C(F)F)c(-c2sc(C(=O)N[C@@H]3CCC[C@H]3O)nc2C(=O)N2CCC[C@@H]2C)cn1)C(F)(F)F [Example 231, 5-[4-(Difluoromethyl)-6-[[(1S)-1-(trifluoromethyl)propyl]amino]-3-pyridyl]-N-[(1R,2R)-2-hydroxycyclopentyl]-4-[(2S)-2-methylpyrrolidine-1-carbonyl]thiazole-2-carboxamide] | –
0.00097 | – | – | C[C@H]1CCCN1C(=O)c1nc(C(=O)NC[C@@H](O)C(F)(F)F)sc1-c1cnc(NC(C)(C)C)cc1C(F)(F)F (relative stereo) [Example 354, 5-(6-(tert-Butylamino)-4-(trifluoromethyl)pyridin-3-yl)-4-((S)-2-methylpyrrolidine-1-carbonyl)-N—((R*)-3,3,3-trifluoro-2-hydroxypropyl)thiazole-2-carboxamide] | inhibition at 3 µM (full-length human RORγt; [2]): 93%; IC50 (full-length human RORγt; [3]): 0.015 µM
0.0007 | – | – | C[C@H]1CCCN1C(=O)c1nc(C(=O)NC2CS(=O)(=O)C2)sc1-c1cnc(NC(C)(C)C)cc1C(F)(F)F [Example 260, 5-[6-(tert-Butylamino)-4-(trifluoromethyl)-3-pyridyl]-N-(1,1-dioxothietan-3-yl)-4-[(2S)-2-methylpyrrolidine-1-carbonyl]thiazole-2-carboxamide] | inhibition at 3 µM (full-length human RORγt; [2]): 112%; IC50 (full-length human RORγt; [3]): 0.014 µM
0.00043 | – | 0.0052 | CC(Nc1cc(C(F)(F)F)c(-c2sc(C(=O)NCC(C)(C)O)nc2C(=O)N2CCCC[C@@H]2C)cn1)C(F)(F)F (stereo partly drawn) [Example 33, N-(2-Hydroxy-2-methylpropyl)-4-((S)-2-methylpiperidine-1-carbonyl)-5-(4-(trifluoromethyl)-6-((1,1,1-trifluoropropan-2-yl)amino)pyridin-3-yl)thiazole-2-carboxamide] | inhibition at 6 µM (full-length human RORγt; read-out: RORγt (FL) Reporter Assay B or C, % inhibition @ 6 μM, Conditions B or C, @ 6 μM): 109%
0.00043 | 85* % | 0.033 | C[C@H](NC(=O)c1nc(C(=O)N2CC(F)(F)C[C@@H]2C)c(-c2cnc(NC3(C)CCC3)cc2C(F)(F)F)s1)C(C)(C)O [Example 195, 4-((S)-4,4-Difluoro-2-methylpyrrolidine-1-carbonyl)-N—((S)-3-hydroxy-3-methylbutan-2-yl)-5-(6-((1-methylcyclobutyl)amino)-4-(trifluoromethyl)pyridine-3-yl)thiazole-2-carboxamide] | –
